Results on two compounds are retold here after patent US20040101916A1, “Treatment of liver diseases” (priority 2002, published 2004).

For experiment [1], the system named is GADD45β. As to the kind of experiment: Northern blot of GADD45β expression after SAMe treatment in HepG2 cells. Format: cell-based, human. The procedure:
(§1) CL-48 and HepG2 cells were treated with 0, 1.0 mM, and 2.0 mM SAMe. After 72 hours of treatment, Northern blot was performed to analyze the expression of GADD45β, using 18S RNA as an internal loading control.
(§2) Expression of GADD45β after SAMe treatment under different p53 backgrounds was examined by Northern blot.

Experiment [2] concerns NF-κB box of the GADD45β promoter region. In words: Gel retardation assay, nuclear proteins of CL-48 cells on NF-κB box of the GADD45β promoter. The experiment is classed as cell-based. The conditions noted are these: CL-48 nuclear proteins, 48 hours after 2.0 mM SAMe or 200 mM alcohol, compared to non-treated control cells. On the procedure:
Nuclear proteins were extracted as mentioned above. End-labeled oligonucleotides corresponding to the NF-κB box of the GADD45β promoter region were incubated with the extracted nuclear proteins, and the binding complexes were then separated on a 6% retardation gel.

Experiment [3] has as its system GADD45β. In words: Northern blot of GADD45β expression after SAMe treatment in Hep3B (p53 null). Format: cell-based, human.
Description: as §2

Experiment [4] deals with GADD45β. In words: Northern blot of GADD45β expression after SAMe treatment in CL-48 normal liver cells. Format: cell-based. The conditions noted are these: CL-48 cells, 0, 1.0 mM, 2.0 mM SAMe, 72 hours. The procedure: as §1
Experiment [5] relates to CCAAT/NF-Y boxes of the GADD45β promoter region. In words: Gel retardation / super-shift assay, nuclear proteins of CL-48 cells on CCAAT/NF-Y boxes of the GADD45β promoter. The conditions noted are these: CL-48 nuclear proteins. Format: cell-based. On the procedure:
End-labeled oligonucleotides corresponding to the CCAAT/NF-Y boxes of the GADD45β promoter region were incubated with the extracted nuclear proteins, and the binding complexes were then separated on a 6% retardation gel. Protein binding sites on the GADD45β promoter Pα region were identified using unlabeled oligonucleotide competitors and NF-Y antibodies.

Another experiment has as its system GADD45α. The settings on record: HepG2 clone, Northern blot. On the procedure: (§3) Expression of GADD45α and GADD45β after alcohol treatment was determined by Northern blot in HepG2 clone.
Experiment [6] deals with GADD45β. The settings on record: HepG2 clone, Northern blot. The procedure: as §3

For `C[S+](CC[C@H](N)C(=O)O)C[C@H]1O[C@@H](n2cnc3c(N)ncnc32)[C@H](O)[C@@H]1O` (stereo partly shown) [SAMe, S-Adenosylmethionine], the “expression of GADD45β after SAMe treatment” value with GADD45β [1] (HepG2 (p53 wild type), different dose ranges) was “up-regulated”; in the experiment on GADD45β [3], “failed to be induced”. Also, the “induction of GADD45β expression” value is “the induction remains dose-dependent” in the experiment on GADD45β [1] (HepG2 cells, 0, 1.0 mM, 2.0 mM SAMe, 72 hours); “induced by a low dose of SAMe in CL-48 cells, and the induction reaches plateau at a higher dose of SAMe” in the experiment with GADD45β [4]. Moreover, in experiment [2], the “amount of binding complexes on NF-κB box oligonucleotides” value is “decreased amount of one binding complex and an increased amount of another binding complex”. In addition, the “amount of major protein-binding band on CCAAT/NF-Y oligonucleotides” value in experiment [5] (48 hours after 2.0 mM SAMe, compared to non-treated controls) is “amount of a major band decreased”. Besides, the “super-shift of binding complex with NF-Y antibodies” value in experiment [5] (SAMe-treated samples) was “the binding complex is shifted”.

Regarding `CCO` [alcohol], the “amount of binding complexes on NF-κB box oligonucleotides” value in experiment [2] was “decreased amount of one binding complex and an increased amount of another binding complex”. The “expression of GADD45α after alcohol treatment” value in the experiment with GADD45α is on record as “increases in a dose-dependent manner”. The “expression of GADD45β after alcohol treatment” value in the experiment on GADD45β [6] is recorded as “does not change”.
